From patent publication US9150530B2, “Esters of 4, 9-dihydroxy-naphtho [2, 3-b] furans for disease therapies” (Zhoushan Haizhongzhou Xinsheng Pharmaceuticals Co., Ltd., priority 2011, dated 2015)

How the values were obtained:
[1] = Human plasma incubation, HPLC analysis of degradation products; format: in vitro ADME; settings: 20 μM in human plasma, 37° C., 2 hours
Procedure: The compounds of formula I were incubated in human plasma at 37° C. for 2 hours, and then the mixtures were treated with acetonitrile to remove protein and the resulting supernatants were analyzed by HPLC (FIG. 2). […] Without wishing to be bound by a particular theory, it is believed that, although not detected due to instability in a protein-free environment, the direct hydrolysis product of a compound of formula I, 4,9-dihydroxy-naphtho[2,3-b]furan, and its partially oxidized product semihydroquinone (shown in scheme 6) co-exist in vivo and play important biological roles.
HPLC column: Waters Sunfire C18, 250×4.60 mm 5 micron; Mobile phase: buffer A, 90% 5 mM potassium phosphate buffer, pH 6.8, 10% acetonitrile; buffer B, 15% 5 mM potassium phosphate buffer, pH 6.8, 85% acetonitrile; Detector: Waters 2998 Photodiode Array Detector.
Gradient B: 0-3 min, 50% buffer B, 3-5 min, 50%-100% buffer B, 5-18 min, 100% buffer B, 18-22 min, 100%-50% buffer B, 22-25 min, […]; flow rate, 1 ml/min. Analysis of the 4,9-dihydroxy-naphtho[2,3-b]furan compounds (FIG. 1)
10 mM of a compound of formula I or its analog in DMSO (however, compound VI was in DMF) was diluted with human plasma to 20 μM, and the resulting mixtures were incubated at 37° C. for 2 hours. To plasma sample, 9 times volume of acetonitrile was added. The resulting mixtures were vortexed and incubated in dry ice for 30 minutes or in −20° C. freezer for 3 hours, then centrifuged, and supernatant was used for HPLC analysis using gradient B.

[2] = system: Panc-1; assay: Effect of NQ01 inhibitor (dicumarol) on biological activity, MTT, Panc-1; format: cell-based; settings: Panc-1 (no significant NQ01 enzymatic activity); dicumarol 40 μM; 48 hr
Procedure: (§1) Cell Viability Determination: Popular MTT method (Archives of Biochemistry and Biophysics, 1993, 303: 474-482) was used to screen the in vitro effects of the invented drugs. Briefly, 5000 to 10000 cells were inoculated per well in a 96-well plate. After overnight incubation, drug was added to the wells at final concentration of 10 μM, […], 2.5 μM, 1.25 μM, or 1 μM, 0.75 μM, 0.5 μM and 0.25 μM in complete culture medium. Each dose level covered 4 equivalent wells. After 48 hour incubation, one tenth volume of 5 mg/mL MTT (thiazolyl blue tetrazolium bromide, Sigma-Aldrich) stock solution was added, and incubation was continued for 2 hours. Then medium was removed and 100 μL of isopropanol solution comprising 86% isopropanol, 4% aqueous 1 N HCl and 10% aqueous SDS solution (10% in concentration) was added. The absorbance of each well at 570 nm wavelength was measured by a micro-plate reader after gentle shaking for 20 minutes. Drug concentrations of 50% cell viability (IC50) were calculated by LOGIT method.
(§2) Effect of NQ01 Inhibitor (Dicumarol) on the Biological Activities of 2-acetyl-4,9-diacetoxy-naphtho[2,3-b]furan and Compound XIII (Part B and C of FIG. 4):MTT assay was used for this experiment. Same procedure as described in “Cell Viability Determination” section. […] The viability of cells at each well was read out after 48 hr incubation in cell culture incubator.

[3] = system: U251; assay: Cell viability determination (MTT), U251; format: cell-based; settings: Homo sapiens, U-251, U251, glioma, 48 hour incubation, read-out: Drug concentrations for 50% cell viability (IC50)
Description: (§3) Cell Culture: A549, DLD1, SW480, LOVO, HT-29, Hela, U-20S, MES-SA, SK-MEL-28, Panc-1, DU-145, CNE, U251, Eca-109, MGC80-3, QGY-7701, BEL-7404, PLC/PRF/5, Huh-7, and SGC-7901 cells were maintained in Dulbecco's Modified Eagle Medium (DMEM) (imported from Invitrogen, Carlsbad, Calif., USA) supplemented with 10% fetal bovine serum (FBS) (Si Ji Qing, Hangzhou, China) and 1% penicillin/streptomycin/amphotericin B (imported from Invitrogen, Carlsbad, Calif., USA).
as §1

[4] = system: DU-145; assay: Cell viability determination (MTT), DU-145; format: cell-based; settings: Homo sapiens, DU-145, prostate cancer, 48 hour incubation, read-out: Drug concentrations for 50% cell viability (IC50)
Description: as §3, §1

[5] = system: DLD1; assay: Effect of NQ01 inhibitor (dicumarol) on biological activity, MTT, DLD1; format: cell-based; settings: DLD1 (significant NQ01 enzymatic activity); dicumarol 40 μM; 48 hr
Procedure: as §1, §2

[6] = system: U-20S; assay: Cell viability determination (MTT), U-20S; format: cell-based; settings: osteosarcoma, 48 hour incubation, read-out: Drug concentrations for 50% cell viability (IC50)
Description: as §3, §1

[7] = system: Eca-109; assay: Cell viability determination (MTT), Eca-109; format: cell-based; settings: Homo sapiens, Eca-109, esophageal cancer, 48 hour incubation, read-out: Drug concentrations for 50% cell viability (IC50)
Description: as §3, §1

[8] = system: SK-MEL-28; assay: Cell viability determination (MTT), SK-MEL-28; format: cell-based; settings: Homo sapiens, SK-MEL-28, malignant melanoma, 48 hour incubation, read-out: Drug concentrations for 50% cell viability (IC50)
Description: as §3, §1

[9] = system: Hela; assay: Cell viability determination (MTT), Hela; format: cell-based; settings: Homo sapiens, cervical cancer, 48 hour incubation, read-out: Drug concentrations for 50% cell viability (IC50)
Description: as §3, §1

[10] = system: LOVO; assay: Cell viability determination (MTT), LOVO; format: cell-based; settings: Homo sapiens, colorectal cancer, 48 hour incubation, read-out: Drug concentrations for 50% cell viability (IC50)
Description: as §3, §1

[11] = system: MES-SA; assay: Cell viability determination (MTT), MES-SA; format: cell-based; settings: Homo sapiens, leiomyosarcoma, 48 hour incubation, read-out: Drug concentrations for 50% cell viability (IC50)
Description: as §3, §1

[12] = system: CNE; assay: Cell viability determination (MTT), CNE; format: cell-based; settings: Homo sapiens, nasopharyngeal cancer, 48 hour incubation, read-out: Drug concentrations for 50% cell viability (IC50)
Description: as §3, §1

[13] = system: SW480; assay: Cell viability determination (MTT), SW480; format: cell-based; settings: Homo sapiens, SW480, colorectal cancer, 48 hour incubation, read-out: Drug concentrations for 50% cell viability (IC50)
Description: as §3, §1

[14] = system: Panc-1; assay: Cell viability determination (MTT), Panc-1; format: cell-based; settings: Homo sapiens, Panc-1, pancreatic cancer, 48 hour incubation, read-out: Drug concentrations for 50% cell viability (IC50)
Description: as §3, §1

[15] = system: A549; assay: Cell viability determination (MTT), A549; format: cell-based; settings: Homo sapiens, A549, lung cancer, 48 hour incubation, read-out: Drug concentrations for 50% cell viability (IC50)
Description: as §3, §1

[16] = system: DLD1; assay: Cell viability determination (MTT), DLD1; format: cell-based; settings: Homo sapiens, DLD-1, DLD1, colorectal cancer, 48 hour incubation, read-out: Drug concentrations for 50% cell viability (IC50)
Description: as §3, §1

[17] = Metabolism in biological fluid (human whole blood, cancer cell lysate, liver microsomes, mouse oral uptake), HPLC; format: in vitro ADME; settings: liver microsomes or mouse oral uptake system, 20 μM, 37° C.
Procedure: Second, a major metabolite found after incubation of compound I, III, IV, VI or XIII in biological fluid, such as human whole blood, or cancer cell lysate, or liver microsomes, or mouse oral uptake system, is compound XII (FIG. 3). Similarly, a major metabolite found after incubation of compound V, VII or XIV in biological fluid is 2-(1-hydroxy-n-propyl)-naphtho[2,3-b]furan-4,9-dione (data not shown). Reduction of the position 2 substituent carbonyl group is part of quinone redox reaction as evidenced by the β-lapachone effect on the formation of compound XII in the compound XIII incubation mixture of human whole blood (part D of FIG. 3). The possible reaction mechanism is proposed as shown in scheme 7, in which the two electron reduction could be NQ01 catalyzed reduction or two successive cytochrome b5 reductase or p450 reductase catalyzed reaction. As substrate of these enzymes, β-lapachone could compete for the two electron or single electron reaction and thus reduced formation of the metabolism product.
Crystalline or amorphous solid of compound was mixed with excipient and suspended in 0.5% carboxymethylcellulose (CMC) solution in a mortar. Then the mixture was orally administered into ICR mouse at the predetermined dosage. At the predetermined time point, blood was drawn from the mouse and stored in the vial containing heparin. The blood samples were centrifuged at 6,000 rpm for 10 min, and plasmas were separated. To each plasma sample, 9 times volume of acetonitrile/methyl trifluoromethanesulfonate (1000:1) or acetonitrile/concentrated HCl (1000:1) was added. The resulting mixtures were vortexed and incubated in dry ice for 30 minutes or in −20° C. freezer for 3 hours, then centrifuged, and supernatants were separated for HPLC analysis using gradient B.
The biological systems for in vitro metabolism study include: human whole blood stabilized with sodium citrate; cancer cell lysate (obtained using freeze-thaw method, 10 mg/ml in protein concentration for use); liver microsomes with NADPH generation system (prepared according to the protocol provided by iPhase Pharma, Beijing, China);
10 mM of a compound of formula I or its analog or compound XIII in DMSO (however, compound VI was in DMF) was added into the biological system to a final concentration of 20 μM. The mixtures were incubated at 37° C. for predetermined time. To each sample, then 9 times volume of acetonitrile was added. The resulting mixtures were vortexed and incubated in dry ice for 30 minutes or in −20° C. freezer for 3 hours, then centrifuged, and supernatants were separated for HPLC analysis using gradient B.

[18] = system: MGC80-3; assay: Cell viability determination (MTT), MGC80-3; format: cell-based; settings: Homo sapiens, MGC-803, MGC80-3, stomach cancer, 48 hour incubation, read-out: Drug concentrations for 50% cell viability (IC50)
Description: as §3, §1

[19] = system: QGY-7701; assay: Cell viability determination (MTT), QGY-7701; format: cell-based; settings: QGY7701, QGY-7701, liver cancer, 48 hour incubation, read-out: Drug concentrations for 50% cell viability (IC50)
Description: as §3, §1

Row | SMILES | Degradation / detectable products after incubation in human plasma [1] | Dicumarol effect on anticancer activity [2] | IC50 [3] [nM] | IC50 [4] [nM] | Dicumarol effect on anticancer activity [5] | IC50 [6] [nM] | IC50 [7] [nM] | IC50 [8] [nM] | IC50 [9] [nM] | IC50 [10] [nM] | IC50 [11] [nM] | IC50 [12] [nM] | IC50 [13] [nM] | IC50 [14] [nM] | IC50 [15] [nM] | IC50 [16] [nM] | Major metabolite found after incubation in biological fluid [17] | IC50 [18] [nM] | IC50 [19] [nM]
1 | CC(=O)Oc1c2ccccc2c(OC(C)=O)c2oc(C(C)=O)cc12 [2-acetyl-4,9-bis(acetoxy)-naphtho[2,3-b]furan, reference compound] | the only detectable product was compound XIII | dicumarol showed little effect | 1080 | 1000 | dicumarol attenuates anticancer activities | 1000 | 1400 | 300 | 1200 | 1100 | 600 | 1500 | 860 | 1500 | 1700 | 1800 |  |  | 
2 | CC(=O)c1cc2c(OC(=O)C(C)(C)C)c3ccccc3c(OC(=O)C(C)(C)C)c2o1 [compound II, 2-acetyl-4,9-Bis(pivaloxy)-naphtho[2,3-b]furan] | barely degraded |  |  |  |  |  | > 4000 |  |  | > 4000 |  |  | > 4000 | 3000 |  | > 4000 |  |  | 
3 | CC(=O)c1cc2c(O)c3ccccc3c(OC(=O)CNC(=O)OC(C)(C)C)c2o1 [compound III, 2-acetyl-4-hydroxy-9-[(tert-butoxycarbonyl)amino]acetoxy-naphtho[2,3-b]furan] |  |  | 2070 | 1250 to 2500 |  | 2500 to 5000 | 2550 | 890 | 1250 to 2500 | 3100 | 470 | 1870 | 1550 | 1770 | 1250 to 2500 | 1030 | compound XII | 1650 | 4800
4 | CC(=O)c1cc2c(OC(=O)C(C)C)c3ccccc3c(OC(=O)C(C)C)c2o1 [compound I] | the detectable products were compound XIII and partially degraded products |  | < 2500 | < 2500 |  | 5700 | 5500 |  | < 2500 | 2800 | < 2500 | 2500 | < 2500 | < 2500 | < 2500 | < 2500 | compound XII | 2500 | 2870
5 | CC(=O)c1cc2c(OC(=O)C(Cl)Cl)c3ccccc3c(OC(=O)C(Cl)Cl)c2o1 [compound VI, 2-acetyl-4,9-Bis(dichloroacetoxy)-naphtho[2,3-b]furan] |  |  | 700 | 1000 |  | 800 | 800 |  | 400 | 1500 | 270 | 1100 | 600 | 1000 | 400 | 900 | compound XII | 600 | 
